Reference: patent US10221225B2, “Peptides and combination of peptides and scaffolds thereof for use in immunotherapy against colorectal carcinoma (CRC) and other cancers” (immatics biotechnologies GmbH, priority 2015, dated 2019)

Experiments:
CD8+ T-cells = assay: In vitro T-cell priming assay with aAPCs loaded with peptide/MHC and anti-CD28, pMHC multimer readout; assay type: cell-based, human; settings: in vitro immunogenicity, HLA-A*02 restricted peptides
Text: In order to obtain information regarding the immunogenicity of the TUMAPs of the present invention, the inventors performed investigations using an in vitro T-cell priming assay based on repeated stimulations of CD8+ T-cells with artificial antigen presenting cells (aAPCs) loaded with peptide/MHC complexes and anti-CD28 antibody.
In order to perform in vitro stimulations by artificial antigen presenting cells loaded with peptide-MHC complex (pMHC) and anti-CD28 antibody, the inventors first isolated CD8+ T-cells from fresh HLA-A*02 leukopheresis products via positive selection using CD8 microbeads (Miltenyi Biotec, Bergisch-Gladbach, Germany) of healthy donors obtained from the University clinics Mannheim, Germany, after informed consent.
PBMCs and isolated CD8+ lymphocytes were incubated in T-cell medium (TCM) until use consisting of RPMI-Glutamax (Invitrogen, Karlsruhe, Germany) supplemented with 10% heat inactivated human AB serum (PAN-Biotech, Aidenbach, Germany), 100 U/ml Penicillin/100 μg/ml Streptomycin (Cambrex, Cologne, Germany), 1 mM sodium pyruvate (CC Pro, Oberdorla, Germany), 20 μg/ml Gentamycin (Cambrex). 2.5 ng/ml IL-7 (PromoCell, Heidelberg, Germany) and 10 U/ml IL-2 (Novartis Pharma, Nürnberg, Germany) were also added to the TCM at this step.
Generation of pMHC/anti-CD28 coated beads, T-cell stimulations and readout was performed in a highly defined in vitro system using four different pMHC molecules per stimulation condition and 8 different pMHC molecules per readout condition.
The purified co-stimulatory mouse IgG2a anti human CD28 Ab 9.3 (Jung et al., 1987) was chemically biotinylated using Sulfo-N-hydroxysuccinimidobiotin as recommended by the manufacturer (Perbio, Bonn, Germany). Beads used were 5.6 μm diameter streptavidin coated polystyrene particles (Bangs Laboratories, Illinois, USA).
800,000 beads/200 μl were coated in 96-well plates in the presence of 4×12.5 ng different biotin-pMHC, washed and 600 ng biotin anti-CD28 were added subsequently in a volume of 200 μl. Stimulations were initiated in 96-well plates by co-incubating 1×10^6 CD8+ T-cells with 2×10^5 washed coated beads in 200 μl TCM supplemented with 5 ng/ml IL-12 (PromoCell) for 3 days at 37° C. Half of the medium was then exchanged by fresh TCM supplemented with 80 U/ml IL-2 and incubating was continued for 4 days at 37° C. This stimulation cycle was performed for a total of three times. For the pMHC multimer readout using 8 different pMHC molecules per condition, a two-dimensional combinatorial coding approach was used as previously described (Andersen et al., 2012) with minor modifications encompassing coupling to 5 different fluorochromes. Finally, multimeric analyses were performed by staining the cells with Live/dead near IR dye (Invitrogen, Karlsruhe, Germany), CD8-FITC antibody clone SK1 (BD, Heidelberg, Germany) and fluorescent pMHC multimers. For analysis, a BD LSRII SORP cytometer equipped with appropriate lasers and filters was used. Peptide specific cells were calculated as percentage of total CD8+ cells. Evaluation of multimeric analysis was done using the FlowJo software (Tree Star, Oregon, USA). In vitro priming of specific multimer+ CD8+ lymphocytes was detected by comparing to negative control stimulations.

HLA-A*02:01 = HLA-A*02:01 (Homo sapiens, UniProt P04439, D140Y/D185E/D98H/E176V/E277Q/G131W/G231S/I119V/I121R/I166T/I218V/L300P/L318F/N151K/N90K/P208A/P217A/Q86G/Q94H/R138H/R169H/T345S); assay: MHC binding assay (UV-ligand exchange, beta2m ELISA, peptide exchange yield); settings: MHC class I binding score; binding to HLA-A*02:01 ranged by peptide exchange yield (UV-ligand exchange, β2m ELISA)
In short: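 Exchange yield is an ELISA read-out: complexes diluted 100-fold, captured on streptavidin plates, detected with HRP anti-β2m and TMB at 450 nm. Standard curve from refolded HLA-A*02:01/MLA-001 (15-500 ng/ml); complexes made by UV-triggered displacement of a photolabile ligand by test peptide.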

Peptide exchange (HLA-A*02:01): ″+++″ (≥50 = +++)
Substance: 150 (RLADLEALKV; listed as Homo sapiens) [compound 150]
Wells positive (CD8+ T-cells): ″++″ (20%-49% = ++)
